biological target: T1, human glucocorticoid receptor (GR) complex (Homo sapiens, UniProt P04150); test: Glucocorticoid Receptor Competitive Binding Assay (fluorescence polarization, TAMRA-labeled dexamethasone probe); details: qualitative statement; competition with TAMRA-labeled dexamethasone
T1 construct: made in house; host or cells: insect expression system (baculovirus lysate)
T1 sequence (P04150 1-777): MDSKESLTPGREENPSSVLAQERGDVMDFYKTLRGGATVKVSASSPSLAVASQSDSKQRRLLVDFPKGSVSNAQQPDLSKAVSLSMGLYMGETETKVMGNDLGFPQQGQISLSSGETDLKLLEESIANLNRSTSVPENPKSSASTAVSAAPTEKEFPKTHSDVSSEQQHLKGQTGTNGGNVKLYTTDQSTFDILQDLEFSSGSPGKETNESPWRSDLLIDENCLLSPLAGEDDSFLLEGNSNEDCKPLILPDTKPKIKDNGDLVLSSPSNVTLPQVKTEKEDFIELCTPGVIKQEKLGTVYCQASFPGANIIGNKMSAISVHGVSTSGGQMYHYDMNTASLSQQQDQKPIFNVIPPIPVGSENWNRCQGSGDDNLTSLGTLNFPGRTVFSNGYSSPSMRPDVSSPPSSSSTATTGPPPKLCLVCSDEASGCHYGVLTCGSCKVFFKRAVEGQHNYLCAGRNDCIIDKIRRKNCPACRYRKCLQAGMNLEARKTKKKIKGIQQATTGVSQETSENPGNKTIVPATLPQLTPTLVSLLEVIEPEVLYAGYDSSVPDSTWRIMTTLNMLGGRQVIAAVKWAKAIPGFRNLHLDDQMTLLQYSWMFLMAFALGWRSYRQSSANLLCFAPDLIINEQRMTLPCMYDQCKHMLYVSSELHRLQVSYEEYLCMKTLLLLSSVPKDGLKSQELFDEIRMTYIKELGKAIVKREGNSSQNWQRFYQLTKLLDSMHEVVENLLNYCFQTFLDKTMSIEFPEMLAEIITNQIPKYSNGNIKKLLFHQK
Experimental: Compounds of the invention were evaluated for binding to the steroid receptor by a fluorescence polarization competitive binding assay.
A. Glucocorticoid Receptor Competitive Binding Assay
Step 1. Characterization of the Fluorescent Probe
The wavelengths for maximum excitation and emission of the fluorescent probe should first be measured. An example of such a probe is rhodamine (TAMRA)-labeled dexamethasone.
The affinity of the probe for the steroid receptor was then determined in a titration experiment. The fluorescence polarization value of the probe in assay buffer was measured on an SLM-8100 fluorometer using the excitation and emission maximum values described above. Aliquots of expression vector lysate were added and fluorescence polarization was measured after each addition until no further change in polarization value was observed. Non-linear least squares regression analysis was used to calculate the dissociation constant of the probe from the polarization values obtained for lysate binding to the probe.
Step 2. Screening for Inhibitors of Probe Binding
This assay uses fluorescence polarization (FP) to quantitate the ability of test compounds to compete with tetramethyl rhodamine (TAMRA)-labeled dexamethasone for binding to a human glucocorticoid receptor (GR) complex prepared from an insect expression system. The assay buffer was: 10 mM TES, 50 mM KCl, 20 mM Na2MoO4. 2H2O, 1.5 mM EDTA, 0.04% w/v CHAPS, 10% v/v glycerol, 1 mM dithiothreitol, pH 7.4. Test compounds were dissolved to 1 mM in neat DMSO and then further diluted to 10× assay concentration in assay buffer supplemented with 10% v/v DMSO. Test compounds were serially diluted at 10× assay concentrations in 10% DMSO-containing buffer in 96-well polypropylene plates. […] Positive controls were reaction mixtures containing no test compound; negative controls (blanks) were reaction mixtures containing 0.7 μM to 2 μM dexamethasone. […] IC50 values were determined by iterative non-linear curve fitting of the FP signal data to a 4-parameter logistic equation.

Activity in the GR binding assay, potent activity:
CC(C)(CC(O)(Cc1[nH]c2ccccc2c1C#N)C(F)(F)F)c1cccc2c1OCC2 (centres unmarked)
COc1c(C(C)(C)CC(O)(Cc2cc3ccccc3[nH]2)C(F)(F)F)ccc2ccccc12 (centres unmarked) [1,1,1-Trifluoro-2-(1H-indol-2-ylmethyl)-4-(1-methoxynaphthalen-2-yl)-4-methylpentan-2-ol]
COc1ccc(C(C)(C)CC(O)(Cc2cc3ccccc3[nH]2)C(F)(F)F)cc1 (centres unmarked) [1,1,1-Trifluoro-2-(1H-indol-2-ylmethyl)-4-(4-methoxyphenyl)-4-methylpentan-2-ol]
CC(C)(CC(O)(Cc1cc2ccccc2[nH]1)C(F)(F)F)c1ccc2ccccc2c1 (centres unmarked) [1,1,1-Trifluoro-2-(1H-indol-2-ylmethyl)-4-methyl-4-naphthalen-2-ylpentan-2-ol]
Cc1ccc(C(C)(C)CC(O)(Cc2cc3ccccc3[nH]2)C(F)(F)F)cc1 (centres unmarked) [1,1,1-Trifluoro-2-(1H-indol-2-ylmethyl)-4-methyl-4-p-tolylpentan-2-ol]
CC(C)(CC(O)(Cc1cc2ccccc2[nH]1)C(F)(F)F)c1ccccc1 (centres unmarked) [1,1,1-Trifluoro-2-(1H-indol-2-ylmethyl)-4-methyl-4-phenylpentan-2-ol]
CC(C)(CC(O)(Cc1cc2ccccc2[nH]1)C(F)(F)F)c1ccsc1 (centres unmarked) [1,1,1-Trifluoro-2-(1H-indol-2-ylmethyl)-4-methyl-4-thiophen-3-ylpentan-2-ol]
COc1ccc(F)cc1C(C)(C)CC(O)(Cc1cc2cc(F)ccc2[nH]1)C(F)(F)F (centres unmarked) [1,1,1-Trifluoro-2-(5-fluoro-1H-indol-2-ylmethyl)-4-(5-fluoro-2-methoxyphenyl)-4-methylpentan-2-ol]
COc1ccc(F)cc1C(C)(C)CC(O)(Cc1nc2ccc(F)cc2[nH]1)C(F)(F)F (centres unmarked) [1,1,1-Trifluoro-2-(6-fluoro-1H-benzoimidazol-2-ylmethyl)-4-(5-fluoro-2-methoxyphenyl)-4-methylpentan-2-ol]
CC(C)(CC(O)(Cc1cc2cccc(F)c2[nH]1)C(F)(F)F)c1ccccc1 (centres unmarked) [1,1,1-Trifluoro-2-(7-fluoro-1H-indol-2-ylmethyl)-4-methyl-4-phenylpentan-2-ol]
COc1c(C(C)(C)CC(O)(Cc2ccnc3ccccc23)C(F)(F)F)ccc2ccccc12 (centres unmarked) [1,1,1-Trifluoro-4-(1-methoxynaphthalen-2-yl)-4-methyl-2-quinolin-4-ylmethylpentan-2-ol]
CC(C)(CC(O)(Cc1cc2ccccc2[nH]1)C(F)(F)F)c1cccc(F)c1 (centres unmarked) [1,1,1-Trifluoro-4-(3-fluorophenyl)-2-(1H-indol-2-ylmethyl)-4-methylpentan-2-ol]
CC(C)(CC(O)(Cc1cc2ccncc2[nH]1)C(F)(F)F)c1cccc(F)c1 (centres unmarked) [1,1,1-Trifluoro-4-(3-fluorophenyl)-4-methyl-2-(1H-pyrrolo[2,3-c]pyridin-2-ylmethyl)pentan-2-ol]
CC(C)(CC(O)(Cc1cc2cnccc2[nH]1)C(F)(F)F)c1cccc(F)c1 (centres unmarked) [1,1,1-Trifluoro-4-(3-fluorophenyl)-4-methyl-2-(1H-pyrrolo[3,2-c]pyridin-2-ylmethyl)pentan-2-ol]
COc1cccc(C(C)(C)CC(O)(Cc2cc3cc(C(F)(F)F)ccc3[nH]2)C(F)(F)F)c1 (centres unmarked) [1,1,1-Trifluoro-4-(3-methoxyphenyl)-4-methyl-2-(5-trifluoromethyl-1H-indol-2-ylmethyl)pentan-2-ol]
CC(C)(CC(O)(Cc1ccnc2cc(F)ccc12)C(F)(F)F)c1ccc(F)cc1 (centres unmarked) [1,1,1-Trifluoro-4-(4-fluorophenyl)-2-(7-fluoroquinolin-4-ylmethyl)-4-methylpentan-2-ol]
CC(C)(CC(O)(Cc1cc2ccncc2[nH]1)C(F)(F)F)c1ccc(F)cc1 (centres unmarked) [1,1,1-Trifluoro-4-(4-fluorophenyl)-4-methyl-2-(1H-pyrrolo[2,3-c]pyridin-2-ylmethyl)pentan-2-ol]
CC(C)(CC(O)(Cc1cc2ccncc2[nH]1)C(F)(F)F)c1cc(F)cc2c1OCC2 (centres unmarked) [1,1,1-Trifluoro-4-(5-fluoro-2,3-dihydrobenzofuran-7-yl)-4-methyl-2-(1H-pyrrolo[2,3-c]pyridin-2-ylmethyl)pentan-2-ol]
CC(C)(CC(O)(Cc1ccnc(Cl)c1)C(F)(F)F)c1cc(F)ccc1O (centres unmarked) [1,1,1-Trifluoro-4-(5-fluoro-2-hydroxyphenyl)-4-methyl-2-(2-chloropyridin-4-ylmethyl)pentan-2-ol]
CC(C)(CC(O)(Cc1cc(Cl)nc2ccccc12)C(F)(F)F)c1cc(F)ccc1O (centres unmarked) [1,1,1-Trifluoro-4-(5-fluoro-2-hydroxyphenyl)-4-methyl-2-(2-chloroquinolin-4-ylmethyl)pentan-2-ol]
COc1ccc(F)cc1C(C)(C)CC(O)(Cc1cc2cccnc2[nH]1)C(F)(F)F (centres unmarked) [1,1,1-Trifluoro-4-(5-fluoro-2-methoxyphenyl)-4-methyl-2-(1H-pyrrolo[2,3-b]pyridin-2-ylmethyl)pentan-2-ol]
COc1ccc(F)cc1C(C)(C)CC(O)(Cc1cc2ncccc2[nH]1)C(F)(F)F (centres unmarked) [1,1,1-Trifluoro-4-(5-fluoro-2-methoxyphenyl)-4-methyl-2-(1H-pyrrolo[3,2-b]pyridin-2-ylmethyl)pentan-2-ol]
COc1ccc(F)cc1C(C)(C)CC(O)(Cc1ccnc(Br)c1)C(F)(F)F (centres unmarked) [1,1,1-Trifluoro-4-(5-fluoro-2-methoxyphenyl)-4-methyl-2-(2-bromopyridin-4-ylmethyl)pentan-2-ol]
COc1ccc(F)cc1C(C)(C)CC(O)(Cc1ccnc(Cl)c1)C(F)(F)F (centres unmarked) [1,1,1-Trifluoro-4-(5-fluoro-2-methoxyphenyl)-4-methyl-2-(2-chloropyridin-4-ylmethyl)pentan-2-ol]
COc1ccc(F)cc1C(C)(C)CC(O)(Cc1cc(Cl)nc2ccccc12)C(F)(F)F (centres unmarked) [1,1,1-Trifluoro-4-(5-fluoro-2-methoxyphenyl)-4-methyl-2-(2-chloroquinolin-4-ylmethyl)pentan-2-ol]
COc1ccc(F)cc1C(C)(C)CC(O)(Cc1nc2cccc(C)c2[nH]1)C(F)(F)F (centres unmarked) [1,1,1-Trifluoro-4-(5-fluoro-2-methoxyphenyl)-4-methyl-2-(7-methyl-1H-benzoimidazol-2-ylmethyl)pentan-2-ol]
